How the values were obtained:
[1] = biological target: Serine/threonine-protein kinase LATS1 (Homo sapiens) (UniProt O95835)
[2] = biological target: T-complex protein 1 subunit gamma (Homo sapiens) (UniProt P49368)
Septin-9 (Homo sapiens) = Septin-9 (Homo sapiens) (UniProt Q9UHD8)
[3] = biological target: tRNA N6-adenosine threonylcarbamoyltransferase (Homo sapiens) (UniProt Q9NPF4)
[4] = biological target: T-complex protein 1 subunit epsilon (Homo sapiens) (UniProt P48643)
[5] = biological target: THO complex subunit 4 (Homo sapiens) (UniProt Q86V81)
[6] = biological target: Dihydrolipoyllysine-residue acetyltransferase component of pyruvate dehydrogenase complex, mitochondrial (Homo sapiens) (UniProt P10515)
[7] = biological target: Microtubule-associated protein RP/EB family member 2 (Homo sapiens) (UniProt Q15555)
[8] = biological target: Fatty acid synthase (Homo sapiens) (UniProt P49327)
[9] = biological target: Peptidyl-prolyl cis-trans isomerase A (Homo sapiens) (UniProt P62937)
[10] = biological target: Protein FAM83B (Homo sapiens) (UniProt Q5T0W9)
[11] = biological target: Splicing factor, proline- and glutamine-rich (Homo sapiens) (UniProt P23246)
[12] = biological target: mRNA turnover protein 4 homolog (Homo sapiens) (UniProt Q9UKD2)
[13] = biological target: Mitotic checkpoint protein BUB3 (Homo sapiens) (UniProt O43684)
[14] = biological target: Signal peptidase complex subunit 2 (Homo sapiens) (UniProt Q15005)
Erlin-1 (Homo sapiens) = Erlin-1 (Homo sapiens) (UniProt O75477)
[15] = biological target: Calcium-binding protein 39 (Homo sapiens) (UniProt Q9Y376)
[16] = biological target: Small ribosomal subunit protein uS17 (Homo sapiens) (UniProt P62280)
[17] = biological target: Coatomer subunit gamma-1 (Homo sapiens) (UniProt Q9Y678)
[18] = biological target: Eukaryotic translation initiation factor 3 subunit B (Homo sapiens) (UniProt P55884)
Kinectin (Homo sapiens) = Kinectin (Homo sapiens) (UniProt Q86UP2)
[19] = biological target: 26S proteasome regulatory subunit 8 (Homo sapiens) (UniProt P62195)
[20] = biological target: Phenylalanine--tRNA ligase alpha subunit (Homo sapiens) (UniProt Q9Y285)
[21] = biological target: Transmembrane protein 33 (Homo sapiens) (UniProt P57088)
[22] = biological target: Mitogen-activated protein kinase 11 (Homo sapiens) (UniProt Q15759)
[23] = biological target: Transmembrane 9 superfamily member 3 (Homo sapiens) (UniProt Q9HD45)
[24] = biological target: Insulin receptor (Homo sapiens) (UniProt P06213)
[25] = biological target: Serine/threonine-protein kinase Chk1 (Homo sapiens) (UniProt O14757)
[26] = biological target: CDK-activating kinase assembly factor MAT1 (Homo sapiens) (UniProt P51948)
[27] = biological target: AP-1 complex subunit gamma-1 (Homo sapiens) (UniProt O43747)
[28] = biological target: Nucleolar complex protein 2 homolog (Homo sapiens) (UniProt Q9Y3T9)
[29] = biological target: Coatomer subunit delta (Homo sapiens) (UniProt P48444)
[30] = biological target: Eukaryotic translation initiation factor 4H (Homo sapiens) (UniProt Q15056)
[31] = biological target: Peroxiredoxin-6 (Homo sapiens) (UniProt P30041)
[32] = biological target: Non-POU domain-containing octamer-binding protein (Homo sapiens) (UniProt Q15233)
[33] = biological target: Ribosomal protein S6 kinase alpha-4 (Homo sapiens) (UniProt O75676)
[34] = biological target: Bifunctional phosphoribosylaminoimidazole carboxylase/phosphoribosylaminoimidazole succinocarboxamide synthetase (Homo sapiens) (UniProt P22234)
[35] = biological target: Tetratricopeptide repeat protein 14 (Homo sapiens) (UniProt Q96N46)
[36] = biological target: Translocon-associated protein subunit alpha (Homo sapiens) (UniProt P43307)
[37] = biological target: Breakpoint cluster region protein (Homo sapiens) (UniProt P11274)
[38] = biological target: Cyclin-dependent kinase 4 (Homo sapiens) (UniProt P11802)
Calumenin (Homo sapiens) = Calumenin (Homo sapiens) (UniProt O43852)
[39] = biological target: HLA class I histocompatibility antigen, C alpha chain (Homo sapiens) (UniProt P10321)
[40] = biological target: Peptidyl-prolyl cis-trans isomerase FKBP1A (Homo sapiens) (UniProt P62942)
[41] = biological target: Spliceosome RNA helicase DDX39B (Homo sapiens) (UniProt Q13838)
[42] = biological target: Putative RNA-binding protein Luc7-like 2 (Homo sapiens) (UniProt Q9Y383)
Further: assay method not described here.

Mitogen-activated protein kinase 11 (Homo sapiens), sequence (Q15759 whole entry): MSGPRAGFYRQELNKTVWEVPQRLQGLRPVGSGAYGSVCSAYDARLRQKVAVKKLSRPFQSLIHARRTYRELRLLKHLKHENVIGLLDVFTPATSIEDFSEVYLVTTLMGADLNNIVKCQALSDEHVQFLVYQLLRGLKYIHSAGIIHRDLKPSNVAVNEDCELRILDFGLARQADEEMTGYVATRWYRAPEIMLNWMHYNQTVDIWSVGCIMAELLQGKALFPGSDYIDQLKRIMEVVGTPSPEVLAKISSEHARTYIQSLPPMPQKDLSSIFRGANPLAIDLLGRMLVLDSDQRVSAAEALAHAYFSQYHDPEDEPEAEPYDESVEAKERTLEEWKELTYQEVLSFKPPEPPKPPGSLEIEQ
Calumenin (Homo sapiens), sequence (O43852 whole entry): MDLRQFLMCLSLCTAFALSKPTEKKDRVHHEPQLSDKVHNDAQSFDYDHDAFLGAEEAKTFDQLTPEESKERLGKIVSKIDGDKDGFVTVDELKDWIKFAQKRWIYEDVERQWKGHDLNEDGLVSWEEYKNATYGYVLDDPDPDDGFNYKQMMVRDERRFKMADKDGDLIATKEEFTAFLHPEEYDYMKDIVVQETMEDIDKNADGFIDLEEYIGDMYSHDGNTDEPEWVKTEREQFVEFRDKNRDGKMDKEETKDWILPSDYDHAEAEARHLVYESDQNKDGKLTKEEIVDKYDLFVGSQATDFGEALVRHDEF
Dihydrolipoyllysine-residue acetyltransferase component of pyruvate dehydrogenase complex, mitochondrial (Homo sapiens), sequence (P10515 whole entry, one chain of several): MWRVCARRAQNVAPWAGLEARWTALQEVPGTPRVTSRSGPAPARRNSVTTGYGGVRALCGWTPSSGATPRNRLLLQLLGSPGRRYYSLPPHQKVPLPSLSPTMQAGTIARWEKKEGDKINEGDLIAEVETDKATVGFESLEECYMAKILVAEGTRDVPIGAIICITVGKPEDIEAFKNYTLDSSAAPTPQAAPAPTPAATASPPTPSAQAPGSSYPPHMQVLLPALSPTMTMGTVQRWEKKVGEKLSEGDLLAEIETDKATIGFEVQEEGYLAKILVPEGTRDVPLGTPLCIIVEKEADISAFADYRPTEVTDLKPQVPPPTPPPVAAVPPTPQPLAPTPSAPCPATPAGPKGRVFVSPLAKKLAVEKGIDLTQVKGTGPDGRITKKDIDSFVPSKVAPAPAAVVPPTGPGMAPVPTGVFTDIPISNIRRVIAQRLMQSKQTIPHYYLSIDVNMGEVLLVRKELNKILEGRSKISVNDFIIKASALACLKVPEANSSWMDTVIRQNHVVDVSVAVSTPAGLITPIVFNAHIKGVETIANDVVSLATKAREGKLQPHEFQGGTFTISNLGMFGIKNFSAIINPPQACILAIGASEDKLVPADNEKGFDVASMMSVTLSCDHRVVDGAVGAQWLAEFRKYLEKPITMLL
T-complex protein 1 subunit gamma (Homo sapiens), sequence (P49368 whole entry, one chain of several): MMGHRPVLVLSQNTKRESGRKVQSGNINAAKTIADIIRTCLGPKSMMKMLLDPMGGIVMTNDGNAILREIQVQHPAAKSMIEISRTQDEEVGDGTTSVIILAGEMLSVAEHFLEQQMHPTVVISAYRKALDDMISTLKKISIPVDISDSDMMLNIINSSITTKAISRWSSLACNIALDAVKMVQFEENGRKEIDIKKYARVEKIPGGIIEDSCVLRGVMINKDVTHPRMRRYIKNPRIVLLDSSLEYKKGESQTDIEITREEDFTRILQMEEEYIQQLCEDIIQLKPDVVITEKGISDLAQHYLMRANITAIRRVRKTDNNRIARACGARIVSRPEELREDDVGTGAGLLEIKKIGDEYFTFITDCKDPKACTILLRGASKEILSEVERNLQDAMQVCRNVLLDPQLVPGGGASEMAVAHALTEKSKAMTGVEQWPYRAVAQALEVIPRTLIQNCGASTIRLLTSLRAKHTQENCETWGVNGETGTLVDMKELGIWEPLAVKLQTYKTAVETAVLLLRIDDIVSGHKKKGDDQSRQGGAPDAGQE
Peroxiredoxin-6 (Homo sapiens), sequence (P30041 whole entry, the tested form may be a part): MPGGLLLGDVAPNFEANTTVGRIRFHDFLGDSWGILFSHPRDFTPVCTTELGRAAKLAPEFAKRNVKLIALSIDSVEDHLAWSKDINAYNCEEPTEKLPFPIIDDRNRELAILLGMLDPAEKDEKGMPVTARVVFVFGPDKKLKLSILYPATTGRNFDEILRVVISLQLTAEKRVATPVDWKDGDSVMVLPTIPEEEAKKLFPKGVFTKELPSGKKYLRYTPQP
Transmembrane 9 superfamily member 3 (Homo sapiens), sequence (Q9HD45 whole entry): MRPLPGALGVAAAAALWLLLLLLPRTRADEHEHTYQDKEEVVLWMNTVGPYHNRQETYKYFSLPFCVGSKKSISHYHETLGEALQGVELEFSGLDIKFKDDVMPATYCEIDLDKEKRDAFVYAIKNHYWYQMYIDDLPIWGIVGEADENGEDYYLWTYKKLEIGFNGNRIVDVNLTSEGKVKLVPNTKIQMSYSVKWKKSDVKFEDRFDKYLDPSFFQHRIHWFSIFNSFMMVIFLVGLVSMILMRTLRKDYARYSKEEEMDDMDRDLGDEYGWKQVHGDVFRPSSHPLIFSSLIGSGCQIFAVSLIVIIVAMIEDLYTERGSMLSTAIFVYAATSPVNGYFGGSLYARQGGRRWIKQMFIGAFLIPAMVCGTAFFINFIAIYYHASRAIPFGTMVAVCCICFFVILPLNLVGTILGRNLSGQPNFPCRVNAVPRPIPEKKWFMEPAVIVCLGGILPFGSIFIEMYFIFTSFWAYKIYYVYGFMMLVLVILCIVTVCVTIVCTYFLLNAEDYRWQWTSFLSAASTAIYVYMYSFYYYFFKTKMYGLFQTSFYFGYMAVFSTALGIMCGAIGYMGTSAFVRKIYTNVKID
Kinectin (Homo sapiens), sequence (Q86UP2 whole entry): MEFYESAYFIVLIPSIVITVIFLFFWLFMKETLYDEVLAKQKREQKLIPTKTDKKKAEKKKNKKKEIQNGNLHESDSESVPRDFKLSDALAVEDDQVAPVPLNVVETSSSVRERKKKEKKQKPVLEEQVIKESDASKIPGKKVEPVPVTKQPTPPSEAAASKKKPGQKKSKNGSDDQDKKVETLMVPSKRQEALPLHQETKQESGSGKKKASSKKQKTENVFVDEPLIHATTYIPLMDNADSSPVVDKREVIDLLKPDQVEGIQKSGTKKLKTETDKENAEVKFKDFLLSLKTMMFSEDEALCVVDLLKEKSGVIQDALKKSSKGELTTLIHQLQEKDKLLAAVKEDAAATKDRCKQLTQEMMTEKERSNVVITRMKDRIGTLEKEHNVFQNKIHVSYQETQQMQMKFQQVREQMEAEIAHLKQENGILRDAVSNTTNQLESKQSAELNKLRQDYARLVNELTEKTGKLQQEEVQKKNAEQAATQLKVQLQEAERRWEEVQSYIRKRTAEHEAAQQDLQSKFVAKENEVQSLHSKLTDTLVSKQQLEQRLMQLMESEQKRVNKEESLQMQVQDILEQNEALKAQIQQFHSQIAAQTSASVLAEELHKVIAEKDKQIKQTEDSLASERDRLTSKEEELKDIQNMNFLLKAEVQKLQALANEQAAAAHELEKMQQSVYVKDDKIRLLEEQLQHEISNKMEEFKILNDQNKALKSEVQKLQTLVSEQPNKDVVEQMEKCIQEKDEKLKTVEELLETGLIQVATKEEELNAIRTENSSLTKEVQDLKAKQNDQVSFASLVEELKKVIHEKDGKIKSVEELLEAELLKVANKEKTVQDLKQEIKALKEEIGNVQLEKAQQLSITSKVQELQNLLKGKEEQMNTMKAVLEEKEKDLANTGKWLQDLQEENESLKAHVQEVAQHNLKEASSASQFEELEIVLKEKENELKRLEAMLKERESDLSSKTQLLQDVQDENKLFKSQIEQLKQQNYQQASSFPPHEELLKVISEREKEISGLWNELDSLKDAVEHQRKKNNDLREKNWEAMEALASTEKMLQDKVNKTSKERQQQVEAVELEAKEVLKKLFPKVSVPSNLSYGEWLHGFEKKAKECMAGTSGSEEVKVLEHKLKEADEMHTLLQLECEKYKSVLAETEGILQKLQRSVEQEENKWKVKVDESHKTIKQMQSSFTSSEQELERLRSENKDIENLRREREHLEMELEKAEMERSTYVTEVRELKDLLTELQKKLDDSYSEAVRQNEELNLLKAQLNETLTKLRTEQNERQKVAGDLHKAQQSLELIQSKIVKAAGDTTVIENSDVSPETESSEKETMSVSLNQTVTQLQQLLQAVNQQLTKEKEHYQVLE
Signal peptidase complex subunit 2 (Homo sapiens), sequence (Q15005 whole entry, one chain of several): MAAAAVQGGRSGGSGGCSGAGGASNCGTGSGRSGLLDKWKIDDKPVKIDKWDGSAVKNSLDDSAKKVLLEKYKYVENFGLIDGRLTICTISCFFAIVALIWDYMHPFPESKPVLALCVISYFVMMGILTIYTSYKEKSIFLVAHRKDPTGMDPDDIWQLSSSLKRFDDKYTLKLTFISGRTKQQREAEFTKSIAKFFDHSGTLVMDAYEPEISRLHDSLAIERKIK
Bifunctional phosphoribosylaminoimidazole carboxylase/phosphoribosylaminoimidazole succinocarboxamide synthetase (Homo sapiens), sequence (P22234 whole entry): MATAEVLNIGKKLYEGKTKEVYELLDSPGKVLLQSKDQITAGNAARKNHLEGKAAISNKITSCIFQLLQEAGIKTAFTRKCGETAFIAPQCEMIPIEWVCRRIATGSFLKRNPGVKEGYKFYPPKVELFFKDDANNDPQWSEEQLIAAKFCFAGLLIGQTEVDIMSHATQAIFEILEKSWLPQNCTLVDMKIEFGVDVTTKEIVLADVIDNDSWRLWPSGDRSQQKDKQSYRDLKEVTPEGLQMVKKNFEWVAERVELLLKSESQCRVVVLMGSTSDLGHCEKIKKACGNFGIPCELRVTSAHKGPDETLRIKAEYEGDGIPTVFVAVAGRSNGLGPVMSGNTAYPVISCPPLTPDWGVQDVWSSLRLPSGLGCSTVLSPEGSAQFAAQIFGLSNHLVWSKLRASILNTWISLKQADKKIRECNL
Cyclin-dependent kinase 4 (Homo sapiens), sequence (P11802 whole entry): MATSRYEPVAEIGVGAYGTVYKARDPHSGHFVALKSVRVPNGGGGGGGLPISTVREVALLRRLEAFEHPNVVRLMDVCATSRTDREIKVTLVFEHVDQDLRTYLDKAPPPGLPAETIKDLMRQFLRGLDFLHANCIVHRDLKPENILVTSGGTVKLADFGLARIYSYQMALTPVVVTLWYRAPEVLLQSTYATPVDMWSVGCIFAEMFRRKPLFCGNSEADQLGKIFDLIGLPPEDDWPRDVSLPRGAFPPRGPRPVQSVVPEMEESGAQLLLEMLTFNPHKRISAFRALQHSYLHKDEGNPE

Cc1ccc(C(=O)Nc2cccc(C(F)(F)F)c2)cc1Nc1nc(-c2cccnc2)nc2nn(C)cc12
ED50 [1]: 0.0878 µM | ED50 [2]: 0.09 µM | ED50 (Septin-9 (Homo sapiens)): 0.109 µM | ED50 [3]: 8.47 µM | ED50 [4]: 0.0516 µM | ED50 [5]: 4.45 µM | ED50 [6]: 0.0551 µM | ED50 (Homo sapiens): 21400 µM | ED50 [7]: 35 µM | ED50 [8]: 0.107 µM | ED50 [9]: 2.04 µM | ED50 [10]: 0.254 µM | ED50 [11]: 15 µM | ED50 [12]: 0.311 µM | ED50 [13]: 0.0679 µM | ED50 [14]: 2.99 µM | ED50 (Erlin-1 (Homo sapiens)): 0.00442 µM | ED50 [15]: 0.00782 µM | ED50 [16]: 0.0189 µM | ED50 [17]: 2.75 µM | ED50 [18]: 0.00195 µM | ED50 (Kinectin (Homo sapiens)): 0.466 µM | ED50 [19]: 0.443 µM | ED50 [20]: 0.0801 µM | ED50 [21]: 0.0053 µM | ED50 [22]: 6.69 µM | ED50 [23]: 0.0218 µM | ED50 [24]: 0.00863 µM | ED50 [25]: 20.6 µM | ED50 [26]: 3.4 µM | ED50 [27]: 1.37 µM | ED50 [28]: 627 µM | ED50 [29]: 8.38 µM | ED50 [30]: 10.8 µM | ED50 [31]: 0.0611 µM | ED50 [32]: 0.0517 µM | ED50 [33]: 0.154 µM | ED50 [34]: 0.0548 µM | ED50 [35]: 2.32 µM | ED50 [36]: 16 µM | ED50 [37]: 0.852 µM | ED50 [38]: 10.1 µM | ED50 (Calumenin (Homo sapiens)): 3.41 µM | ED50 [39]: 2.07 µM | ED50 [40]: 0.00568 µM | ED50 [41]: 0.957 µM | ED50 [42]: 4.27 µM

Cc1ccc(C(=O)Nc2cccc(C(F)(F)F)c2)cc1Nc1nc(-c2cccnc2)nc2c1cnn2C
ED50 [1]: 0.00186 µM | ED50 [2]: 0.0644 µM | ED50 (Septin-9 (Homo sapiens)): 8.65 µM | ED50 [3]: 7.56 µM | ED50 [4]: 0.000216 µM | ED50 [5]: 70.3 µM | ED50 [6]: 2.58 µM | ED50 (Homo sapiens): 0.0833 µM | ED50 [7]: 0.0302 µM | ED50 [8]: 0.0377 µM | ED50 [9]: 0.396 µM | ED50 [10]: 1380 µM | ED50 [11]: 6.39 µM | ED50 [12]: 10.8 µM | ED50 [13]: 0.00528 µM | ED50 [14]: 0.916 µM | ED50 (Erlin-1 (Homo sapiens)): 0.367 µM | ED50 [15]: 0.157 µM | ED50 [16]: 0.0251 µM | ED50 [17]: 0.164 µM | ED50 [18]: 9.87 µM | ED50 (Kinectin (Homo sapiens)): 4.85 µM | ED50 [19]: 7.4 µM | ED50 [20]: 0.0419 µM | ED50 [21]: 4.89 µM | ED50 [22]: 0.0255 µM | ED50 [23]: 4.22 µM | ED50 [24]: 0.163 µM | ED50 [25]: 1.32 µM | ED50 [26]: 0.00972 µM | ED50 [27]: 0.163 µM | ED50 [28]: 0.637 µM | ED50 [29]: 2.38 µM | ED50 [30]: 90.6 µM | ED50 [31]: 66.2 µM | ED50 [32]: 3.17 µM | ED50 [33]: 0.0142 µM | ED50 [34]: 0.0205 µM | ED50 [35]: 1.9 µM | ED50 [36]: 12.2 µM | ED50 [37]: 0.488 µM | ED50 [38]: 0.000606 µM | ED50 (Calumenin (Homo sapiens)): 1.72 µM | ED50 [39]: 3.75 µM | ED50 [40]: 94 µM | ED50 [41]: 18.4 µM | ED50 [42]: 1.77 µM

Reference: ChEMBL document CHEMBL5649169 (ChemMedChem, 2018)
